The target of one assay is T1, RARα (Homo sapiens, UniProt P10276).
T1 sequence (P10276 1-462): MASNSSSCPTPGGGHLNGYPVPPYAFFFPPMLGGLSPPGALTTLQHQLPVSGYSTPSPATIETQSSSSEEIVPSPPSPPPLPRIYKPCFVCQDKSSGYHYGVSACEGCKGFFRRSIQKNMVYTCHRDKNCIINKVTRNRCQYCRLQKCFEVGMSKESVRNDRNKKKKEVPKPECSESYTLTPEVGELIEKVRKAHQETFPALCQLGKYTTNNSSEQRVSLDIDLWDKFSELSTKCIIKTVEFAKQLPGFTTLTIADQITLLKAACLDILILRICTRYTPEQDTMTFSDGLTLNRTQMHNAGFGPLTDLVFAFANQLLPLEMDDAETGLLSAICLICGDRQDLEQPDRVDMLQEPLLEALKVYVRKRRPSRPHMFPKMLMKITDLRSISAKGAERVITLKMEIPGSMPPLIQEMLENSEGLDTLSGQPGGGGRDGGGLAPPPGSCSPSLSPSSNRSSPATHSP
In words: ligand binding assay, RARα. The conditions noted are these: Kd line of EC50/(EFFICACY)/Kd, read-out: RAR Kd α.

In another assay the target is T2, P450RAI-1 (Homo sapiens, UniProt O43174).
T2 construct: expressed in transfected cells; host or cells: HeLa cells, stably transfected, hygromycin selection
T2 sequence (O43174 1-497): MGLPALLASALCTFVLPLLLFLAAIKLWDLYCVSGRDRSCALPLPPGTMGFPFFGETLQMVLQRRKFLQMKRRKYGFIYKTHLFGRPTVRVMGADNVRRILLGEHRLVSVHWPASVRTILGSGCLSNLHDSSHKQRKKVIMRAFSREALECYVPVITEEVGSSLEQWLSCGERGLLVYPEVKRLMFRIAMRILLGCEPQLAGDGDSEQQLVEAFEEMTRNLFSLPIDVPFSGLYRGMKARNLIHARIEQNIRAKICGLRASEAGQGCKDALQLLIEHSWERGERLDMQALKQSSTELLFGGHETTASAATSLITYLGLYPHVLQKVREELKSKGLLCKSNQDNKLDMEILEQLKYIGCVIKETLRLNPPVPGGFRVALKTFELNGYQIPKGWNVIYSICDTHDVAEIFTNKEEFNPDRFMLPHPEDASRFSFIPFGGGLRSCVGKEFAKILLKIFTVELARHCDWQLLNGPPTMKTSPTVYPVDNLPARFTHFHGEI
Briefly: P450RAI-1 cell-based inhibitor assay. The conditions noted are these: P450RAI-1 stably transfected HeLa cells, [3H]-RA metabolism, 3 hours at 37° C.; read-out: P450RAI INHIBITION DATA INTACT HELA IC50. The essentials:
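HeLa cells stably expressing the enzyme (5×10^5/well) incubated 3 h at 37 °C with 0.05 μCi [3H]-all-trans-RA and compound at 10, 1 or 0.1 μM in triplicate. Water-soluble radioactive metabolites counted by scintillation; IC50 derived manually from log-transformed data.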

Another assay deals with T3, RARβ (Homo sapiens, UniProt P10826).
T3 sequence (P10826 183-417 limits assumed): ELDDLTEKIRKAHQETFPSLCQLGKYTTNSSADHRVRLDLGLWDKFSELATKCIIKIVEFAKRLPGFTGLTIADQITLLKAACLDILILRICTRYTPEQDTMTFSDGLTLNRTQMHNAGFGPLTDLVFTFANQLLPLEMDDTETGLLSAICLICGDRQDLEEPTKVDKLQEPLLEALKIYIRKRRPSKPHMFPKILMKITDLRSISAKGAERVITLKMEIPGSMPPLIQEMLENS
In words: chimeric receptor transactivation assay, RARβ. In kind it is cell-based. The note with it: EC50 line of EC50/(EFFICACY)/Kd, read-out: RAR EC50 β. An excerpt:
Assays described below measure the ability of a compound to bind to, and/or activate various retinoid receptor subtypes. When in these assays a compound binds to a given receptor subtype and activates the transcription of a reporter gene through that subtype, then the compound is considered an agonist of that receptor subtype. […] In the below described assays the ability of the compounds to bind to RARα, RARβ, RARγ, RXRα, RXRβ and RXRγ receptors, and the ability or inability of the compounds to activate transcription of a reporter gene through these receptor subtypes can be tested.
As far as specific assays are concerned, a chimeric receptor transactivation assay which tests for agonist-like activity in the RARα, RARβ, AND RARγ, receptor subtypes, and which is based on work published by Feigner P. L. and Holm M. (1989) Focus, 112 is described in detail in U.S. Pat. No. 5,455,265. The specification of U.S. Pat. No. 5,455,265 is hereby expressly incorporated by reference. The numeric results obtained with several preferred compounds of this invention in this assay are shown below in Table 1.

Usually Kd stands for a measure of binding affinity in units of concentration. Usually IC50 stands for the point on the concentration scale where inhibition reaches its midpoint. Broadly, the EC50 is the concentration at which the effect is half-maximal.

As to `CCc1cc(C#Cc2ccc(C(=O)O)cc2)ccc1C1(OCc2ccccc2)CC1` [Compound 93, 4-[4-(1-Benzyloxycyclopropyl)-3-ethyl-phenylethynyl]-benzoic Acid], at RARα, the Kd was found to be 3450 nM. The IC50 on P450RAI-1 is more than 10000 nM. Further, the EC50 on RARβ was 20 nM.
In the case of `CC(C)OC1(c2ccc(C#Cc3ccc(C(=O)O)cc3)cc2)CC1` [Compound 73, 4-[4-(1-Isopropoxycyclopropyl)-phenylethynyl]-benzoic Acid], the Kd on RARα stood at 486 nM. Besides, the IC50 on P450RAI-1 is more than 10000 nM. Moreover, on RARβ, the EC50 was found to be 22.5 nM.
The matching figures for `CC1(C)CC2(CC2)Oc2ccc(C#Cc3ccc(C(=O)O)c(F)c3)cc21` [Compound 44, 2-Fluoro-benzoic Acid, 4-[(3,4-dihydro-4,4-dimethylspiro[2H-1-benzopyran-2,1′-cyclopropane]-6-yl)ethynyl]-]: 37 nM, 270 nM and 1.7 nM.
Turning to `COC1(c2ccc(C#Cc3ccc(C(=O)O)cc3)cc2)CC1` [Compound 69, 4-[4-(1-Methoxycyclopropyl)-phenylethynyl]-benzoic Acid], the Kd on RARα is 469 nM. Moreover, at P450RAI-1, the IC50 was more than 10000 nM. Further, the EC50 at RARβ was 12 nM.
For `CC1(C)CC2(CC2)Oc2ccc(C#Cc3ccc(C(=O)O)cc3)cc21` [Compound 40, Benzoic Acid, 4-[(3,4-dihydro-4,4-dimethylspiro[2H-1-benzopyran-2,1′-cyclopropane]-6-yl)ethynyl]-] the same measures were 69 nM, 1700 nM and 1.2 nM.
For `Cc1cc(C#Cc2ccc(C(=O)O)cc2)ccc1C1(OC(C)C)CC1` [Compound 85, 4-[4-(1-Isopropoxycyclopropyl)-3-methyl-phenylethynyl]-benzoic Acid] the same measures were 1860 nM, more than 10000 nM and 3.5 nM.
Take `CC1(C)CCC(=O)c2ccc(C#Cc3ccc(CC(=O)O)cc3)cc21` [Compound 5, 4-[(8,8-Dimethyl-5-oxo-5,6,7,8-tetrahydro-naphthalene-2-yl-ethynyl)-phenyl]-acetic Acid]: at RARα, the Kd was found to be 9150 nM. Moreover, the IC50 at P450RAI-1 worked out at 550 nM. The EC50 on RARβ turned out to be 11 nM.
The matching figures for `Cc1cc(C#Cc2ccc(C(=O)O)cc2)ccc1C1(OCc2ccccc2)CC1` [Compound 81, 4-[4-(1-Benzyloxycyclopropyl)-3-methyl-phenylethynyl]-benzoic Acid]: 4210 nM, more than 10000 nM and 490 nM.
`Cc1cc(C#Cc2ccc(C(=O)O)cc2)ccc1C1(OCC(C)(C)C)CC1` [Compound 89, 4-[4-[1-(2,2-Dimethylpropyloxy)-cyclopropyl]-3-methyl-phenylethynyl]-benzoic Acid]: the Kd at RARα was found to be 3410 nM. On P450RAI-1, the IC50 was more than 10000 nM. On RARβ, the half-maximal effective concentration (EC50) came to 26 nM.
`O=C(O)c1ccc(C#Cc2ccc(C3(NCc4ccccc4)CC3)cc2)cc1` [Compound 112, 4-[4-(1-Benzylamino-cyclopropyl)-phenylethynyl]-benzoic Acid]: the Kd on RARα was 5850 nM. In addition, the IC50 on P450RAI-1 is more than 10000 nM. Further, the EC50 at RARβ is 335 nM.
For `CCCNC1(c2ccc(C#Cc3ccc(C(=O)O)cc3)cc2)CC1` [Compound 108, 4-[4-(1-Propylamino-cyclopropyl)-phenylethynyl]-benzoic Acid] the same measures were 21000 nM, more than 10000 nM and 283 nM.
As for `CN(C1CC1)C1CCC(C)(C)c2cc(C#Cc3ccc(C(=O)O)cc3)ccc21` (centres unmarked) [Compound 3, 4-[(5-Cyclopropyl-methyl-amino)-8,8-dimethyl-5,6,7,8-tetrahydro-naphthalene-2yl-ethynyl]-benzoic Acid], the Kd on RARα came to 145 nM. Further, the IC50 at P450RAI-1 amounted to 3000 nM. Moreover, the EC50 on RARβ is 4.8 nM.
For the compound `CN(C1CC1)C1CCC(C)(C)c2cc(C#Cc3ccc(CC(=O)O)cc3)ccc21` (centres unmarked) [Compound 8, 4-[(5-(Cyclopropyl-methyl-amino)-8,8-dimethyl-5,6,7,8-tetrahydro-naphthalene-2-yl-ethynyl)-phenyl]-acetic Acid], the IC50 at P450RAI-1 is 400 nM. For the same compound, on RARβ, the EC50 amounted to 363 nM.
On to `CCCN(CCC)C1(c2ccc(C#Cc3ccc(C(=O)O)cc3)cc2)CC1` [Compound 110, 4-[4-(1-Dipropylamino-cyclopropyl)-phenylethynyl]-benzoic Acid], for which the Kd on RARα worked out at 2060 nM. Besides, on P450RAI-1, the IC50 is more than 10000 nM. Moreover, at RARβ, the EC50 turned out to be 74 nM.

The values are drawn from patent US6369225B1, “Compounds having activity as inhibitors of cytochrome P450RAI” (Allergan Sales, Inc., priority 2000, dated 2002).
